{
  "source": "patent US6855346B2",
  "about": "“Pharmaceutical composition having prophylactic effects on lamivudine-related disease relapse and drug resistance and methods of using the same” (priority 2001, dated 2005)",
  "format_in_all_cases": "in vivo, human",
  "key": {"[1]": {"system": "Chronic Hepatitis B (HBV)", "assay": "Clinical study of YGK and lamivudine in chronic hepatitis B patients: serum biological markers (Example 6)", "protocol": "Patients were randomized and divided into group A, B and C. Group A was the treatment group with 48 patients while group B with 42 patients and group C with 45 patients were positive control groups.\n(§1) (2) Treatment Method • Each treatment period lasted for 4 weeks.\n(§2) (1) Observe Items • (a) Hepatitis B biological markers: Serum HBV-DNA, HBeAg, Anti-Hbe, HbsAg, Anti-HBs were analyzed before treatment, at week 4, 8, 16 and 32 during treatment and at week 24 and 48 after treatment termination. • Serum HBV-DNA was measured by polymerase chain reaction (PCR) using 9600 DNA Amplification Machine (PE corp., USA) and reagents from E-li-kang Biotech. Corp., Zhejiang, Wenzhou, China. Serum HBeAg, anti-HBe, HBsAg, and Anti-HBs were determined by the Imx method using Automatic Quick Micro Immune Analytic Instrument and reagents from Abbott Laboratories, USA. • (b) Hepatic functions: ALT was monitored at week 4, 8, 16 and 32 during treatment and at week 24 and 48 after treatment termination. • (c) Adverse effects: Patients were constantly monitored by the medical staff for adverse effect throughout the treatment periods.\nData obtained at weeks 4, 8, 16, and 32 during treatment and at weeks 24 and 48 after treatment termination were analyzed by Chi-square (X^2) and t-test. The statistical results obtained were used to evaluate the therapeutic effects."}, "ALT": {"system": "ALT", "assay": "Clinical study of YGK and lamivudine in chronic hepatitis B patients: hepatic function (ALT)", "protocol": "(§3) A total of 135 patients who met the criteria were included in this study. Patients were randomized and divided into group A, B and C. Group A was the treatment group with 48 patients while group B with 42 patients and group C with 45 patients were positive control groups.\nas §1, §2\nData obtained at weeks 4, 8, 16, and 32 during treatment and at weeks 24 and 48 after treatment termination were analyzed by Chi-square (X^2) and t-test. […]"}, "[2]": {"assay": "Clinical study of YGK and lamivudine in chronic hepatitis B patients: adverse effects", "conditions": "after 16 weeks of treatment, of 42 patients; disappeared after 2 more weeks", "protocol": "as §3, §1, §2"}, "[3]": {"conditions": "number of patients after 4 weeks of treatment"}, "[4]": {"conditions": "number of patients after 8 weeks of treatment"}, "[5]": {"conditions": "number of patients after 16 weeks of treatment"}, "[6]": {"conditions": "number of patients after 32 weeks of treatment"}, "[7]": {"conditions": "number of patients at week 24 after treatment termination"}, "[8]": {"conditions": "number of patients at week 48 after treatment termination"}},
  "note": "Marks after values point to notes of the source that are not given here.",
  "data": [
    {"molecule": "Nc1ccn([C@@H]2CS[C@H](CO)O2)c(=O)n1", "note": "[lamivudine, (2R, cis)-4-amino-1-(2-hydroxmethyl-1,3-oxathiolan-5-yl)-(1H)-pyrimidin-2-one]", "values": [
      {"measurement": "HBeAg seroconversion", "setting": "[1]; after 16 weeks of treatment", "result": 4.8, "unit": "%"},
      {"measurement": "patients with negative HBV DNA", "setting": "[1]; after 16 weeks of treatment", "result": 61.9, "unit": "%"},
      {"measurement": "HBV DNA negative conversion", "setting": "[1]; after 32 weeks of treatment", "result": 90.5, "unit": "%"},
      {"measurement": "HBeAg seroconversion", "setting": "[1]; after 32 weeks of treatment", "result": 9.5, "unit": "%"},
      {"measurement": "rate for patients turning negative in HBeAg", "setting": "[1]; after lamivudine treatment", "result": 9.5, "unit": "%"},
      {"measurement": "Seroconversion of HBeAg", "setting": "[1]; [3]", "result": "0**"},
      {"measurement": "Seroconversion of HBsAg", "setting": "[1]; [3]", "result": 0},
      {"measurement": "Seroconversion of anti-Hbe", "setting": "[1]; [3]", "result": "0**"},
      {"measurement": "Seroconversion of Anti-HBs", "setting": "[1]; [4]", "result": 0},
      {"measurement": "Seroconversion of HBeAg", "setting": "[1]; [4]", "result": "0**"},
      {"measurement": "Seroconversion of HBsAg", "setting": "[1]; [4]", "result": "0**"},
      {"measurement": "Seroconversion of anti-HBe", "setting": "[1]; [4]", "result": "0**"},
      {"measurement": "Seroconversion of Anti-HBs", "setting": "[1]; [5]", "result": 0},
      {"measurement": "Seroconversion of HBeAg", "setting": "[1]; [5]", "result": "2**"},
      {"measurement": "Seroconversion of HBsAg", "setting": "[1]; [5]", "result": "0**"},
      {"measurement": "Seroconversion of anti-HBe", "setting": "[1]; [5]", "result": "0**"},
      {"measurement": "Seroconversion of Anti-HBs", "setting": "[1]; [6]", "result": 1},
      {"measurement": "Seroconversion of HBeAg", "setting": "[1]; [6]", "result": "4**"},
      {"measurement": "Seroconversion of HBsAg", "setting": "[1]; [6]", "result": "1**"},
      {"measurement": "Seroconversion of anti-HBe", "setting": "[1]; [6]", "result": "4**"},
      {"measurement": "Seroconversion of Anti-HBs 24W", "setting": "[1]; [7]", "result": "1**"},
      {"measurement": "Seroconversion of HBeAg 24W", "setting": "[1]; [7]", "result": "4**"},
      {"measurement": "Seroconversion of HBsAg 24W", "setting": "[1]; [7]", "result": "1**"},
      {"measurement": "Seroconversion of anti-HBe 24W", "setting": "[1]; [7]", "result": "4**"},
      {"measurement": "Seroconversion of Anti-HBs 48W", "setting": "[1]; [8]", "result": "0**"},
      {"measurement": "Seroconversion of HBeAg 48W", "setting": "[1]; [8]", "result": "0**"},
      {"measurement": "Seroconversion of HBsAg 48W", "setting": "[1]; [8]", "result": "0**"},
      {"measurement": "Seroconversion of anti-HBe 48W", "setting": "[1]; [8]", "result": "0**"},
      {"measurement": "patients relapsed to positive for HBV DNA", "setting": "[1]; of the 38 patients HBV DNA negative during treatment, week 48 after treatment termination", "result": 12},
      {"measurement": "overall HBV DNA seroconversion rate", "setting": "[1]; week 48 after treatment termination", "result": 61.9, "unit": "%"},
      {"measurement": "patients with normal ALT", "setting": "ALT; after 4 weeks of treatment", "result": 66.6, "unit": "%"},
      {"measurement": "patients with normal ALT", "setting": "ALT; [3]", "result": "28**"},
      {"measurement": "patients showing adverse effects (anorexia, abdominal discomfort, fluctuating ALT levels)", "setting": "[2]", "result": 8}
    ]}
  ]
}
